According to patent publication US20230203043A1, “NOVEL IMIDAZOPYRAZINE DERIVATIVES” (Hoffmann-La Roche Inc., priority 2020, published 2023):
Where a name gives a salt, the structure may show the parent alone. Read-outs that look alike come from different tables or passages of the source.

Test system: Acinetobacter baumannii ATCC17961
Assay: Antimicrobial susceptibility testing: 90% growth inhibitory concentration (IC90) determination in Iso-Sensitest broth, OD600 growth
Assay type: cell-based
Conditions: Acinetobacter baumannii, ATCC17961, 16 h
Procedure, shortened: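 OD600 read every 20 min for 16 h at 35±2° C; inhibition taken in log phase to derive IC90. Twofold, 10-point dilutions (e.g. 50–0.097 μM final), inoculum ~5×10^(5) CFU/ml.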

[1] = read-out: A. baumannii ATCC 17961 IC90 (uM), strain ATCC 17961, OD600 growth over 16 h
[2] = strain ATCC 17961, OD600 growth over 16 h, read-out: A. baumannii ATCC 17961 IC90

N#CCn1cc(-c2cnc3c(Nc4ccc(C(=O)N5CCN(C(=O)C6CC(N)C6)CC5)c(Cl)c4)nccn23)c(C(F)(F)F)n1 (stereo not shown) [Example 189, 2-[4-[8-[4-[4-(3-aminocyclobutanecarbonyl)piperazine-1-carbonyl]-3-chloroanilino]imidazo[1,2-a]pyrazin-3-yl]-3-(trifluoromethyl)pyrazol-1-yl]acetonitrile formate]
IC90 [1]: 0.204 µM

N#CCn1cc(-c2cnc3c(Nc4ccc(C(=O)N5CCN(C(=O)[C@H]6CCNC6)CC5)c(Cl)c4)nccn23)c(C(F)(F)F)n1 [Example 190, 2-[4-[8-[3-chloro-4-[4-[(3S)-pyrrolidine-3-carbonyl]piperazine-1-carbonyl]anilino]imidazo[1,2-a]pyrazin-3-yl]-3-(trifluoromethyl)pyrazol-1-yl]acetonitrile]
IC90 [2]: 0.245 µM

N#CCn1cc(-c2cnc3c(Nc4ccc(C(=O)N5CCN(C(=O)[C@@H]6CCNC6)CC5)c(Cl)c4)nccn23)c(C(F)(F)F)n1 [Example 191, 2-[4-[8-[3-chloro-4-[4-[(3R)-pyrrolidine-3-carbonyl]piperazine-1-carbonyl]anilino]imidazo[1,2-a]pyrazin-3-yl]-3-(trifluoromethyl)pyrazol-1-yl]acetonitrile]
IC90 [2]: 0.276 µM

N#CCn1cc(-c2cnc3c(Nc4ccc(C(=O)N5CCN(C(=O)[C@H]6CC[C@@H](N)C6)CC5)c(Cl)c4)nccn23)c(C(F)(F)F)n1 [Example 192, 2-[4-[8-[4-[4-[(1S,3R)-3-aminocyclopentanecarbonyl]piperazine-1-carbonyl]-3-chloroanilino]imidazo[1,2-a]pyrazin-3-yl]-3-(trifluoromethyl)pyrazol-1-yl]acetonitrile formate]
IC90 [1]: 0.208 µM

CCc1cc(Nc2nccn3c(-c4c[nH]nc4C(F)(F)F)cnc23)ccc1C(=O)NCCCNC(=O)NCCN [Example 193, N-[3-(2-aminoethylcarbamoylamino)propyl]-2-ethyl-4-[[3-[3-(trifluoromethyl)-1H-pyrazol-4-yl]imidazo[1,2-a]pyrazin-8-yl]amino]benzamide formate]
IC90 [1]: 0.244 µM

N#CCn1cc(-c2cnc3c(Nc4ccc(C(=O)N5CCN(C(=O)[C@@H]6CC[C@H](N)C6)CC5)c(Cl)c4)nccn23)c(C(F)(F)F)n1 [Example 194, 2-[4-[8-[4-[4-[(1R,3S)-3-aminocyclopentanecarbonyl]piperazine-1-carbonyl]-3-chloroanilino]imidazo[1,2-a]pyrazin-3-yl]-3-(trifluoromethyl)pyrazol-1-yl]acetonitrile formate]
IC90 [2]: 0.274 µM

CCc1cc(Nc2nccn3c(-c4c[nH]nc4C(F)(F)F)cnc23)ccc1C(=O)NCCCNC(=O)[C@@H](N)CCCCN [Example 195, N-[3-[[(2S)-2,6-diaminohexanoyl]amino]propyl]-2-ethyl-4-[[3-[3-(trifluoromethyl)-1H-pyrazol-4-yl]imidazo[1,2-a]pyrazin-8-yl]amino]benzamide formate]
IC90 [1]: 0.331 µM

C=CCNCCCNC(=O)c1ccc(Nc2nccn3c(-c4c[nH]nc4C(F)(F)F)cnc23)cc1CC [Example 196, 2-ethyl-N-[3-(prop-2-enylamino)propyl]-4-[[3-[3-(trifluoromethyl)-1H-pyrazol-4-yl]imidazo[1,2-a]pyrazin-8-yl]amino]benzamide]
IC90 [2]: 0.674 µM

O=C(c1ccc(Nc2nccn3c(-c4c[nH]nc4C(F)(F)F)cnc23)cc1Cl)N1CCN(C(=O)[C@@H]2CCNC2)CC1 [Example 197, [2-chloro-4-[[3-[3-(trifluoromethyl)-1H-pyrazol-4-yl]imidazo[1,2-a]pyrazin-8-yl]amino]phenyl]-[4-[(3R)-pyrrolidine-3-carbonyl]piperazin-1-yl]methanone]
IC90 [2]: 0.16 µM

O=C(c1ccc(Nc2nccn3c(-c4c[nH]nc4C(F)(F)F)cnc23)cc1Cl)N1CCN(C(=O)[C@H]2CCCN2)CC1 [Example 198, [2-chloro-4-[[3-[3-(trifluoromethyl)-1H-pyrazol-4-yl]imidazo[1,2-a]pyrazin-8-yl]amino]phenyl]-[4-[(2R)-pyrrolidine-2-carbonyl]piperazin-1-yl]methanone]
IC90 [2]: 0.216 µM

N#CCn1cc(-c2cnc3c(Nc4ccc(C(=O)NC5CCC(N)CC5)c(Cl)c4)nccn23)c(C(F)(F)F)n1 (stereo not shown) [Example 199, N-(4-aminocyclohexyl)-2-chloro-4-[[3-[1-(cyanomethyl)-3-(trifluoromethyl)pyrazol-4-yl]imidazo[1,2-a]pyrazin-8-yl]amino]benzamide formate]
IC90 [1]: 0.336 µM

N[C@H]1CN[C@H](C(=O)N2CCN(C(=O)c3ccc(Nc4nccn5c(-c6c[nH]nc6C(F)(F)F)cnc45)cc3Cl)CC2)C1 [Example 200, [4-[(2S,4R)-4-aminopyrrolidine-2-carbonyl]piperazin-1-yl]-[2-chloro-4-[[3-[3-(trifluoromethyl)-1H-pyrazol-4-yl]imidazo[1,2-a]pyrazin-8-yl]amino]phenyl] methanone formate]
IC90 [1]: 0.372 µM

N#CCn1cc(-c2cnc3c(Nc4ccc(C(=O)NOCCN)c(Cl)c4)nccn23)c(C(F)(F)F)n1 [Example 201, N-(2-aminoethoxy)-2-chloro-4-[[3-[1-(cyanomethyl)-3-(trifluoromethyl)pyrazol-4-yl]imidazo[1,2-a]pyrazin-8-yl]amino]benzamide formate]
IC90 [1]: 0.486 µM

N#CCn1cc(-c2cnc3c(Nc4ccc(C(=O)N5CCC(N)CC5)c(Cl)c4)nccn23)c(C(F)(F)F)n1 [Example 202, 2-[4-[8-[4-(4-aminopiperidine-1-carbonyl)-3-chloroanilino]imidazo[1,2-a]pyrazin-3-yl]-3-(trifluoromethyl)pyrazol-1-yl]acetonitrile]
IC90 [2]: 0.109 µM

CCc1cc(Nc2nccn3c(-c4c[nH]nc4C(F)(F)F)cnc23)ccc1C(=O)NCCOC[C@H](C)N [Example 203, N-[2-[(2S)-2-aminopropoxy]ethyl]-2-ethyl-4-[[3-[3-(trifluoromethyl)-1H-pyrazol-4-yl]imidazo[1,2-a]pyrazin-8-yl]amino]benzamide]
IC90 [2]: 0.102 µM

CCc1cc(Nc2nccn3c(-c4c[nH]nc4C(F)(F)F)cnc23)ccc1C(=O)NCCOC[C@@H](C)N [Example 204, N-[2-[(2R)-2-aminopropoxy]ethyl]-2-ethyl-4-[[3-[3-(trifluoromethyl)-1H-pyrazol-4-yl]imidazo[1,2-a]pyrazin-8-yl]amino]benzamide]
IC90 [2]: 0.256 µM

CCOCCCNC(=O)c1ccc(Nc2nccn3c(-c4cn(CC#N)nc4C(F)(F)F)cnc23)cc1CC [Example 205, 4-[[3-[1-(cyanomethyl)-3-(trifluoromethyl)pyrazol-4-yl]imidazo[1,2-a]pyrazin-8-yl]amino]-N-(3-ethoxypropyl)-2-ethylbenzamide]
IC90 [2]: 0.256 µM

C[C@H](N)C(=O)N1CCN(C(=O)c2ccc(Nc3nccn4c(-c5c[nH]nc5C(F)(F)F)cnc34)cc2Cl)CC1 [Example 206, (2S)-2-amino-1-[4-[2-chloro-4-[[3-[3-(trifluoromethyl)-1H-pyrazol-4-yl]imidazo[1,2-a]pyrazin-8-yl]amino]benzoyl]piperazin-1-yl]propan-1-one]
IC90 [2]: 0.169 µM

C[C@@H](N)C(=O)N1CCN(C(=O)c2ccc(Nc3nccn4c(-c5c[nH]nc5C(F)(F)F)cnc34)cc2Cl)CC1 [Example 207, (2R)-2-amino-1-[4-[2-chloro-4-[[3-[3-(trifluoromethyl)-1H-pyrazol-4-yl]imidazo[1,2-a]pyrazin-8-yl]amino]benzoyl]piperazin-1-yl]propan-1-one]
IC90 [2]: 0.205 µM

O=C(c1ccc(Nc2nccn3c(-c4c[nH]nc4C(F)(F)F)cnc23)cc1Cl)N1CCN(C(=O)[C@H]2CCNC2)CC1 [Example 208, [2-chloro-4-[[3-[3-(trifluoromethyl)-1H-pyrazol-4-yl]imidazo[1,2-a]pyrazin-8-yl]amino]phenyl]-[4-[(3S)-pyrrolidine-3-carbonyl]piperazin-1-yl]methanone]
IC90 [2]: 0.232 µM

O=C(c1ccc(Nc2nccn3c(-c4c[nH]nc4C(F)(F)F)cnc23)cc1Cl)N1CCN(C(=O)[C@@H]2CCCN2)CC1 [Example 209, [2-chloro-4-[[3-[3-(trifluoromethyl)-1H-pyrazol-4-yl]imidazo[1,2-a]pyrazin-8-yl]amino]phenyl]-[4-[(2S)-pyrrolidine-2-carbonyl]piperazin-1-yl]methanone]
IC90 [2]: 0.105 µM

N#CCn1cc(-c2cnc3c(Nc4ccc(C(=O)N5CCN(C(=O)[C@@H]6CCCN6)CC5)c(Cl)c4)nccn23)c(C(F)(F)F)n1 [Example 210, 2-[4-[8-[3-chloro-4-[4-[(2S)-pyrrolidine-2-carbonyl]piperazine-1-carbonyl]anilino]imidazo[1,2-a]pyrazin-3-yl]-3-(trifluoromethyl)pyrazol-1-yl]acetonitrile]
IC90 [2]: 0.174 µM

N=C(N)NC[C@H](N)C(=O)NCCCNC(=O)c1ccc(Nc2nccn3c(-c4c[nH]nc4C(F)(F)F)cnc23)cc1Cl [Example 211, N-[3-[[(2S)-2-amino-3-carbamimidamidopropanoyl]amino]propyl]-2-chloro-4-[[3-[3-(trifluoromethyl)-1H-pyrazol-4-yl]imidazo[1,2-a]pyrazin-8-yl]amino]benzamide formate]
IC90 [1]: 0.284 µM

CCc1cc(Nc2nccn3c(-c4c[nH]nc4C(F)(F)F)cnc23)ccc1C(=O)NCCCNC(=O)CCN [Example 212, N-[3-(3-aminopropanoylamino)propyl]-2-ethyl-4-[[3-[3-(trifluoromethyl)-1H-pyrazol-4-yl]imidazo[1,2-a]pyrazin-8-yl]amino]benzamide formate]
IC90 [1]: 0.296 µM

CCc1cc(Nc2nccn3c(-c4c[nH]nc4C(F)(F)F)cnc23)ccc1C(=O)NCCNC(=O)[C@@H](N)CNC(=N)N [Example 213, N-[2-[[(2S)-2-amino-3-carbamimidamidopropanoyl]amino]ethyl]-2-ethyl-4-[[3-[3-(trifluoromethyl)-1H-pyrazol-4-yl]imidazo[1,2-a]pyrazin-8-yl]amino]benzamide formate]
IC90 [1]: 0.378 µM
